Assay results from article PMC3951324, “Side Chain Hydrophobicity Modulates Therapeutic Activity and Membrane Selectivity of Antimicrobial Peptide Mastoparan-X” (PLoS ONE, 2014).
Ends that are not written are not given here.

Test: Peptide partitioning by ITC
Format: physicochemical
Details: 37°C
Protocol: Lipid stock solutions of POPC and POPG were prepared in chloroform∶methanol (9∶1). Mixtures of POPC∶POPG (3∶1) were prepared and the organic solvent was evaporated under a gentle stream of nitrogen. The lipid films were kept in vacuum (P<0.1 Pa) overnight in order to remove the residual solvent. Buffer containing 10 mM HEPES and 100 mM sodium chloride (pH 7.4) was added to the lipid films, and they were hydrated for 60 min followed by extrusion through 100 nm using an Avanti mini-extruder. Dynamic Light Scattering (DLS, Brookhaven Instrument Corporation, ZetaPALS) was used for measuring the liposome size distribution. The effective lipid concentration was determined by inductively coupled plasma atomic emission spectroscopy (ICP-AES Vista AX, Varian).
The partitioning of AMPs onto lipid membranes was investigated by isothermal titration calorimetry (ITC, iTC200, Microcal, 204 µL cell volume). For the peptide analogues MPX, Ala1 and Ala14, 10 mM […] (3∶1) LUVs were injected (19×2 µL) into a 20 µM peptide solution at T = 37°C. The speed of the stirrer was 1000 rpms, and all titration were initiated with a 0.5 µL pre-injection. The heat-traces were integrated using custom made software, and the heat of partitioning was analysed using a partitioning isotherm based on Gouy-Chapman-Stern description of the electrostatic interaction of the peptide and membrane, [32]. The effective charge of the peptide (zeff), the partitioning coefficient of insertion (Kins), the molar enthalpy of partitioning ( [drawing 4] ), and the heat of dilution (qdil) were extracted as fitting parameters. The effective partitioning coefficient was derived as [drawing 5] where F is Faradays constant, [drawing 6] is the electrostatic potential evaluated at the interface of a fully charged membrane (25mol% negative charge before insertion of the first peptide), and R is the ideal gas constant. The instrument was electrically calibrated, and blank titration of LUVs into buffer was performed to ensure that heat of dilution could be modelled as a constant in the data analysis. Each titration was conducted in triplicates.

With “INWKGIAAMAKKLL-NH2 [MPX, mastoparan X, reference compound]” the “effective charge (zeff) of the peptide” value (10 mM POPC∶POPG (3∶1) 100 nm LUVs injected (19×2 µL) into 20 µM peptide, pH 7.4, Gouy-Chapman-Stern fit, triplicates) was 2.5±0.1, the “partition coefficient of insertion Kins/10^5” value (10 mM POPC∶POPG (3∶1) LUVs into 20 µM peptide, pH 7.4, Gouy-Chapman-Stern fit, value is Kins divided by 10^5, triplicates) was 4.2±0.2 and the “molar enthalpy of partitioning” value (10 mM POPC∶POPG (3∶1) LUVs into 20 µM peptide, pH 7.4, triplicates) was -24.0 ± 0.3 kJ/mol. The “effective partition coefficient Keff/10^8” value (derived from Kins, zeff and the surface potential of fully charged membrane (25 mol% negative charge), value is Keff divided by 10^8) was 1.6±0.2.
